In patent US20230203044A1, “PYRAZOLO[1,5-D][1,2,4]TRIAZINE-5(4H)-ACETAMIDES AS INHIBITORS OF THE NLRP3 INFLAMMASOME” (JANSSEN PHARMACEUTICA NV, priority 2020, published 2023):

Columns and labels:
NLRP3 inflammasome = assay: PBMC assay: IL-1β in LPS-stimulated human PBMCs (MSD); type: cell-based; details: human PBMCs, 100 ng/ml LPS for 6 hrs, IL-1β in supernatant via MSD, read-out: IL1β IC50
Outline: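 Human PBMCs from healthy donors, Ficoll-isolated and cryopreserved, were plated at 7.5×10^4 cells/well in RPMI/10% FBS for 30 min at 37 °C. Cells were then stimulated with 100 ng/ml LPS (final) for 6 h. IL-1β and TNF in supernatants were quantified by MSD immunoassay.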

TNF = assay: PBMC assay: TNF cytokine levels in LPS-stimulated human PBMCs (MSD); type: cell-based; details: 100 ng/ml LPS for 6 hrs, TNF in supernatant via MSD
Outline: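 Cryopreserved healthy-donor human PBMCs (7.5×10^4 cells/well, RPMI + 10% FBS) were preincubated with 1:3 serially diluted compounds for 30 min at 37 °C. They were then stimulated with 100 ng/ml LPS (final) for 6 h. Supernatant TNF was measured by MSD, and EC50 values were derived.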

IC50 (NLRP3 inflammasome) [µM]	EC50 (TNF) [µM]	SMILES
0.48	> 10	CC(C)c1nn(CC(=O)N[C@H]2C[C@@](C)(O)C2)c(=O)c2c(N)c(C3CC3)nn12 [Final Cpd 181, 2-(3-amino-2-cyclopropyl-7-isopropyl-4-oxopyrazolo[1,5-d][1,2,4]triazin-5(4H)-yl)-N-((ls,3s)-3-hydroxy-3-methylcyclobutyl)acetamide]
0.8	> 10	CC(C)c1nn(CC(=O)N[C@@H]2CCCNC2)c(=O)c2cc(C3CC3)nn12 [Final Cpd 187, (R)-2-(2-cyclopropyl-7-isopropyl-4-oxopyrazolo[1,5-d][1,2,4]triazin-5(4H)-yl)-N-(piperidin-3-yl)acetamide]
0.74	> 10	CC(C)c1nn(CC(=O)N[C@H]2CNCC[C@H]2O)c(=O)c2cc(C3CC3)nn12 [Final Cpd 188]
0.61	> 10	CC[C@]1(O)C[C@@H](NC(=O)Cn2nc(C(C)C)n3nc(C4CC4)cc3c2=O)C1 [Final Cpd 192, 2-(2-cyclopropyl-7-isopropyl-4-oxopyrazolo[1,5-d][1,2,4]triazin-5(4H)-yl)-N-((1r,3s)-3-ethyl-3-hydroxycyclobutyl)acetamide]
> 10	> 10	COCCCc1nn(CC(=O)N[C@H]2C[C@@](C)(O)C2)c(=O)c2cc(C3CC3)nn12 [Final Cpd 194, 2-(2-cyclopropyl-7-(3-methoxypropyl)-4-oxopyrazolo[1,5-d][1,2,4]triazin-5(4H)-yl)-N-((ls,3s)-3-hydroxy-3-methylcyclobutyl)acetamide]
> 10	> 10	C[C@]1(O)C[C@@H](NC(=O)Cn2nc(CCCC(F)(F)F)n3nc(C4CC4)cc3c2=O)C1 [Final Cpd 195, 2-(2-cyclopropyl-4-oxo-7-(4,4,4-trifluorobutyl)pyrazolo[1,5-d][1,2,4]triazin-5(4H)-yl)-N-((ls,3s)-3-hydroxy-3-methylcyclobutyl)acetamide]
> 10	> 10	CCCCc1nn(CC(=O)N[C@H]2C[C@@](C)(O)C2)c(=O)c2cc(C3CC3)nn12 [Final Cpd 196]
> 10	> 10	C[C@]1(O)C[C@@H](NC(=O)Cn2nc(CC3CCOC3)n3nc(C4CC4)cc3c2=O)C1 (some centres unmarked) [Final Cpd 197]
> 10	> 10	C[C@]1(O)C[C@@H](NC(=O)Cn2nc(CC3CCC3)n3nc(C4CC4)cc3c2=O)C1 [Final Cpd 198]
> 10	> 10	COc1ccc(-c2nn(CC(=O)N[C@H]3C[C@@](C)(O)C3)c(=O)c3cc(C4CC4)nn23)cc1 [Final Cpd 199, 2-(2-cyclopropyl-7-(4-methoxyphenyl)-4-oxopyrazolo [1,5-d] [1,2,4]triazin-5(4H)-yl)-N-((1 s,3 s)-3-hydroxy-3-methylcyclobutyl)acetamide]
> 10	> 10	C=CC(C)c1nn(CC(=O)N[C@H]2C[C@@](C)(O)C2)c(=O)c2cc(C3CC3)nn12 (some centres unmarked) [Final Cpd 200]
> 10	> 10	CCC(C)c1nn(CC(=O)N[C@H]2C[C@@](C)(O)C2)c(=O)c2cc(C3CC3)nn12 (some centres unmarked) [Final Cpd 201]

Continued, molecule first:

SMILES	IC50 (NLRP3 inflammasome) [µM]	EC50 (TNF) [µM]
CC(C)c1nn(CC(=O)Nc2ccc3nnc(C(F)(F)F)n3n2)c(=O)c2cc(C3CC3)nn12 [Final Cpd 168]	0.84	> 10
CC(C)c1nn(CC(=O)Nc2ccc3nnnn3n2)c(=O)c2cc(C3CC3)nn12 [Final Cpd 169]	0.16	> 10
CC(C)c1nn(CC(=O)Nc2ccc3nnc(Cl)n3n2)c(=O)c2cc(C3CC3)nn12 [Final Cpd 170]	0.55	> 10
Cc1nnc2ccc(NC(=O)Cn3nc(C(C)C)n4nc(C5CC5)cc4c3=O)nn12 [Final Cpd 171]	0.22	> 10
CC(C)c1nn(CC(=O)Nc2ccc(C(F)(F)F)nn2)c(=O)c2cc(C3CC3)nn12 [Final Cpd 172, 2-(2-cyclopropyl-7-isopropyl-4-oxopyrazolo[1,5-d][1,2,4]triazin-5(4H)-yl)-N-(6-(trifluoromethyl)pyridazin-3-yl)acetamide]	> 10	> 10
CC(C)c1nn(CC(=O)Nc2ccc(I)nn2)c(=O)c2cc(C3CC3)nn12 [Final Cpd 173]	> 10	> 10
CC(C)c1nn(CC(=O)Nc2ccc(C(F)F)nn2)c(=O)c2cc(C3CC3)nn12 [Final Cpd 174]	6.75	> 10
CC(C)c1nn(CC(=O)Nc2ccc3nncn3c2)c(=O)c2cc(C(C)(F)F)nn12 [Final Cpd 175, N-([1,2,4]triazolo[4,3-a]pyridin-6-yl)-2-(2-(1,1-difluoroethyl)isopropyl-4-oxopyrazolo[1,5-d][1,2,4]triazin-5(4H)-yl)acetamide]	0.22	> 10
CC(C)c1nn(CC(=O)Nc2ccc3nncn3n2)c(=O)c2cc(C(C)(F)F)nn12 [Final Cpd 176]	0.082	> 10
C=C(OCC)c1cc2c(=O)n(CC(=O)Nc3ccncn3)nc(C(C)C)n2n1 [Final Cpd 179, 2-(2-(1-ethoxyvinyl)-7-isopropyl-4-oxopyrazolo[1,5-d][1,2,4]triazin-5(4H)-yl)-N-(pyrimidin-4-yl)acetamide]	> 10	> 10
CCOC(C)c1cc2c(=O)n(CC(=O)Nc3ccncn3)nc(C(C)C)n2n1 (centres unmarked) [Final Cpd 180, 2-(2-(1-ethoxyethyl)-74 sopropyl-4-oxopyrazolo[1,5-d][1,2,4]triazin-5(4H)-yl)-N-(pyrimidin-4-yl)acetamide]	> 10	> 10
CC(C)c1nn(CC(=O)Nc2ccc3nncn3c2)c(=O)c2c(N)c(C3CCC3)nn12 [Final Cpd 182]	0.1	> 10
CC(=O)c1cc2c(=O)n(CC(=O)Nc3ccncn3)nc(C(C)C)n2n1 [Final Cpd 183, 2-(2-acetyl-7-isopropyl-4-oxopyrazolo[1,5-d][1,2,4]triazin-5(4H)-yl)-N-(pyrimidin-4-yl)acetamide]	5.04	> 10
CCc1nn(CC(=O)Nc2ccncn2)c(=O)c2cc(NC(C)=O)nn12 [Final Cpd 184, 2-(2-acetamido-7-ethyl-4-oxopyrazolo[1,5-d][1,2,4]triazin-5(4H)-yl)-N-(pyrimidin-4-yl)acetamide]	> 10	> 10
CC(C)c1nn(CC(=O)Nc2ccncn2)c(=O)c2cc(C(C)O)nn12 (centres unmarked) [Final Cpd 185, 2-(2-(1-hydroxyethyl)-7-sopropyl-4-oxopyrazolo[1,5-d][1,2,4]triazin-5(4H)-yl)-N-(pyrimidin-4-yl)acetamide]	4.11	> 10
CC(C)c1nn(CC(=O)Nc2ccncn2)c(=O)c2cc(N)nn12 [Final Cpd 186, 2-(2-amino-7-isopropyl-4-oxopyrazolo[1,5-d][1,2,4]triazin-5(4H)-yl)-N-(pyrimidin-4-yl)acetamide]	> 10	> 10
CC(C)c1nn(CC(=O)N[C@@H]2CCCN(CC(F)(F)F)C2)c(=O)c2cc(C3CC3)nn12 [Final Cpd 189, (R)-2-(2-cyclopropyl-7-isopropyl-4-oxopyrazolo[1,5-d][1,2,4]triazin-5(4H)-yl)-N-(1-(2,2,2-trifluoroethyl)piperidin-3-yl)acetamide]	1.16	> 10
CCN1CC[C@@H](O)[C@@H](NC(=O)Cn2nc(C(C)C)n3nc(C4CC4)cc3c2=O)C1 [Final Cpd 190, 2-(2-cyclopropyl-7-isopropyl-4-oxopyrazolo[1,5-d][1,2,4]triazin-5(4H)-yl)-N-((3S,4R)-1-ethyl-4-hydroxypiperidin-3-yl)acetamide]	0.054	> 10
CC(C)c1nn(CC(=O)Nc2cc(C#N)c3nncn3c2)c(=O)c2cc(C3CC3)nn12 [Final Cpd 193, N-(8-cyano-[1,2,4]triazolo[4,3-a]pyridin-6-yl)-2-(2-cyclopropyl-7-isopropyl-4-oxopyrazolo[1,5-d][1,2,4]triazin-5(4H)-yl)acetamide]	0.98	> 10
